# From the supplement of paper PMC10307832
# Key:
# Experiment in all cases: relative viability (nuclei count vs DMSO), 5 days (fraction); higher = more cells survive
# NCI-H460 = system: NCI-H460
# Procedure, shortened: (§1)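 Medians of duplicate plates are given as relative viability. That measure is the nuclei count in treated wells divided by the count in vehicle wells. Counts were taken on 4× images of lung cancer cell lines in 1536-well plates, 5 days after pin-tool dosing the day after seeding with one drug alone or a fixed anchor-drug dose plus five library-drug doses (not always all listed) in √10 steps.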
# H3255 = system: H3255
# Procedure, shortened: as §1
# CAL-12T = system: CAL-12T
# Procedure, shortened: as §1
# NCI-H520 = system: NCI-H520
# Procedure, shortened: as §1
# LCLC-97TM1 = system: LCLC-97TM1
# Procedure, shortened: as §1
# NCI-H2023 = system: NCI-H2023
# Procedure, shortened: as §1
# NCI-H441 = system: NCI-H441
# Procedure, shortened: as §1
# PC-3 [JPC-3] = system: PC-3 [JPC-3]
# Procedure, shortened: as §1
# NCI-H596 = system: NCI-H596
# Procedure, shortened: as §1
# ABC-1 = system: ABC-1
# Procedure, shortened: as §1
# NCI-H727 = system: NCI-H727
# Procedure, shortened: as §1
# NCI-H2087 = system: NCI-H2087
# Procedure, shortened: as §1
compound,measurement,setting,value
Clc1ccc(Nc2nnc(Cc3ccncc3)c3ccccc23)cc1 [Vatalanib] + C[C@@H](Oc1cc(-c2cnn(C3CCNCC3)c2)cnc1N)c1c(Cl)ccc(F)c1Cl [Crizotinib] (partner 1 µM),relative viability,NCI-H460; first compound 0.1265 µM,0.827
same,relative viability,NCI-H460; first compound 0.4 µM,1.21
same,relative viability,NCI-H460; first compound 1.265 µM,0.748
same,relative viability,NCI-H460; first compound 4 µM,0.856
same,relative viability,H3255; first compound 0.04 µM,0.986
same,relative viability,H3255; first compound 0.1265 µM,0.878
same,relative viability,H3255; first compound 0.4 µM,0.718
same,relative viability,H3255; first compound 1.265 µM,0.802
same,relative viability,H3255; first compound 4 µM,0.85
same,relative viability,CAL-12T; first compound 0.04 µM,0.651
same,relative viability,CAL-12T; first compound 0.1265 µM,0.523
same,relative viability,CAL-12T; first compound 0.4 µM,0.686
same,relative viability,CAL-12T; first compound 1.265 µM,0.446
same,relative viability,CAL-12T; first compound 4 µM,0.746
same,relative viability,NCI-H520; first compound 0.04 µM,0.667
same,relative viability,NCI-H520; first compound 0.1265 µM,0.849
same,relative viability,NCI-H520; first compound 0.4 µM,0.824
same,relative viability,NCI-H520; first compound 1.265 µM,0.614
same,relative viability,NCI-H520; first compound 4 µM,0.696
same,relative viability,LCLC-97TM1; first compound 0.04 µM,0.308
same,relative viability,LCLC-97TM1; first compound 0.1265 µM,0.312
same,relative viability,LCLC-97TM1; first compound 0.4 µM,0.447
same,relative viability,LCLC-97TM1; first compound 1.265 µM,0.386
same,relative viability,LCLC-97TM1; first compound 4 µM,0.365
same,relative viability,NCI-H2023; first compound 0.04 µM,0.571
same,relative viability,NCI-H2023; first compound 0.1265 µM,0.667
same,relative viability,NCI-H2023; first compound 0.4 µM,0.698
same,relative viability,NCI-H2023; first compound 1.265 µM,0.605
same,relative viability,NCI-H2023; first compound 4 µM,0.559
same,relative viability,NCI-H441; first compound 0.04 µM,0.851
same,relative viability,NCI-H441; first compound 0.1265 µM,0.605
same,relative viability,NCI-H441; first compound 0.4 µM,0.72
same,relative viability,NCI-H441; first compound 1.265 µM,0.835
same,relative viability,NCI-H441; first compound 4 µM,0.831
same,relative viability,PC-3 [JPC-3]; first compound 0.04 µM,0.978
same,relative viability,PC-3 [JPC-3]; first compound 0.1265 µM,0.872
same,relative viability,PC-3 [JPC-3]; first compound 0.4 µM,0.967
same,relative viability,PC-3 [JPC-3]; first compound 1.265 µM,0.937
same,relative viability,PC-3 [JPC-3]; first compound 4 µM,0.949
same,relative viability,NCI-H596; first compound 0.04 µM,1.05
same,relative viability,NCI-H596; first compound 0.1265 µM,1.02
same,relative viability,NCI-H596; first compound 0.4 µM,0.884
same,relative viability,NCI-H596; first compound 1.265 µM,0.955
same,relative viability,NCI-H596; first compound 4 µM,1.16
same,relative viability,ABC-1; first compound 0.04 µM,1.01
same,relative viability,ABC-1; first compound 0.1265 µM,1
same,relative viability,ABC-1; first compound 0.4 µM,1.37
same,relative viability,ABC-1; first compound 1.265 µM,0.89
same,relative viability,ABC-1; first compound 4 µM,1.13
same,relative viability,NCI-H727; first compound 0.04 µM,0.689
same,relative viability,NCI-H727; first compound 0.1265 µM,0.603
same,relative viability,NCI-H727; first compound 0.4 µM,0.992
same,relative viability,NCI-H727; first compound 1.265 µM,0.693
same,relative viability,NCI-H727; first compound 4 µM,0.654
same,relative viability,NCI-H2087; first compound 0.04 µM,0.89
same,relative viability,NCI-H2087; first compound 0.1265 µM,1.07
same,relative viability,NCI-H2087; first compound 0.4 µM,0.828
same,relative viability,NCI-H2087; first compound 1.265 µM,0.826
same,relative viability,NCI-H2087; first compound 4 µM,0.89
